{
  "source": "patent US5508311A",
  "about": "“Aliphatic propargylamines as selective MAO-B inhibitors and as neuroprotective agents” (University of Saskatchewan, priority 1993, dated 1996)",
  "key": {"MAO-B [1]": {"biological_target": "T1, MAO-B (Rattus norvegicus, UniProt P19643)", "T1 sequence (P19643 1-520)": "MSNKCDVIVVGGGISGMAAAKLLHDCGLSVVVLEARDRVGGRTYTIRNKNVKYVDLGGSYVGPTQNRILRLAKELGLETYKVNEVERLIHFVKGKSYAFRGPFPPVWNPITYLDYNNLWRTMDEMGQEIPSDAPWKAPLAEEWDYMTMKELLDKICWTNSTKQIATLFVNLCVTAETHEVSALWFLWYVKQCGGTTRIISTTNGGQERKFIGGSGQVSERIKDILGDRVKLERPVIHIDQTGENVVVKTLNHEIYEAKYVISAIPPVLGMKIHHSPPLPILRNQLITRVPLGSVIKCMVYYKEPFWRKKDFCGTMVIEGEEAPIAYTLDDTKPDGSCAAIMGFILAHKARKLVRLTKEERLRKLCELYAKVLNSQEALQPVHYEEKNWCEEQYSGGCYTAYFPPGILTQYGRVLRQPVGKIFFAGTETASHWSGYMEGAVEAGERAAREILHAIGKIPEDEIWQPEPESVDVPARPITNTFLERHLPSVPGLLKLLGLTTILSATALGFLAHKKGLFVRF", "assay": "biochemical", "format": "biochemical", "conditions": "for IC50: read-out: PE IC50", "procedure": "(§1) The aliphatic propargylamine inhibitors (from 1×10^-10 M to 1×10^-4 M) were preincubated with the MAO for 20 min. at ambient room temperature and then the residual enzyme activities were determined by addition of the substrates, followed by further incubation at 37° C. for 30 min. The enzymatic reactions were terminated by the addition of citric acid and the aldehyde products were extracted with toluene: ethyl acetate (1:1, v/v) and the radio-activities assessed in a scintillation counter."}, "MAO-A [2]": {"biological_target": "T2, MAO-A (Rattus norvegicus, UniProt P21396)", "T2 sequence (P21396 1-526)": "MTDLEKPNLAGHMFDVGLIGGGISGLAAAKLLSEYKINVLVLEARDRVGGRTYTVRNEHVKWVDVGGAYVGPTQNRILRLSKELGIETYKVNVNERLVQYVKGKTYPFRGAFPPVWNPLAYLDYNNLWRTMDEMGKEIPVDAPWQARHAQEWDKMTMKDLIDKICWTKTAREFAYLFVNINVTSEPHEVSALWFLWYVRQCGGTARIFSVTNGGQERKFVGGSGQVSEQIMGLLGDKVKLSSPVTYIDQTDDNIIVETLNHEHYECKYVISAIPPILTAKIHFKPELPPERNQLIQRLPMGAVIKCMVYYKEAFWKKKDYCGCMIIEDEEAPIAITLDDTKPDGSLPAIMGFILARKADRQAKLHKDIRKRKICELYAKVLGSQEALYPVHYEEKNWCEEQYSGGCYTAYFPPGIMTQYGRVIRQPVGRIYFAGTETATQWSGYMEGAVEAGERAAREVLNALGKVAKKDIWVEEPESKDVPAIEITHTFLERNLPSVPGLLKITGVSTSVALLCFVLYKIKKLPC", "assay": "biochemical", "format": "biochemical", "conditions": "substrate 5-HT (5 × 10^-4 M); rat liver MAO, in vitro; average of at least 3 independent experiments", "procedure": "as §1"}, "monoamine oxidase": {"biological_target": "monoamine oxidase", "assay": "Inhibition of rat liver monoamine oxidase deamination of dopamine (DA, mixed-type MAO A and B substrate) in vitro", "format": "biochemical", "conditions": "substrate DA (5 × 10^-4 M), average of at least 3 independent experiments", "procedure": "as §1"}, "MAO-B [3]": {"biological_target": "T3, MAO-B (Mus musculus, UniProt Q8BW75)", "T3 construct": "MAO activities in the mouse brain after; from tissue", "T3 sequence (Q8BW75 1-520)": "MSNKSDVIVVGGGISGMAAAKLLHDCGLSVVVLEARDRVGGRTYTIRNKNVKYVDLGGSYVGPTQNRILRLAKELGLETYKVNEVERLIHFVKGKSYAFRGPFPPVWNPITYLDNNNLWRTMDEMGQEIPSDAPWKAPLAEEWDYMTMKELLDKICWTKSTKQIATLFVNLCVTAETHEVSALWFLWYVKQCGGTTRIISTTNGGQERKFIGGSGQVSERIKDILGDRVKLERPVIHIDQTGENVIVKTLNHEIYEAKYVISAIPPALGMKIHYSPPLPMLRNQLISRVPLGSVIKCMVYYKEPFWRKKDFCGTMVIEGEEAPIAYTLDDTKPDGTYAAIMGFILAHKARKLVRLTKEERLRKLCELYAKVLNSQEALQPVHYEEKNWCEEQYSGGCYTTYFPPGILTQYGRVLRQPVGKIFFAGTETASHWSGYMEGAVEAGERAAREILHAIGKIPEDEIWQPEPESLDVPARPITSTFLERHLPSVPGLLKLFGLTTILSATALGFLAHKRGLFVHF", "assay": "MAO-B activity in the mouse brain after oral administration (substrate PE)", "format": "in vivo", "conditions": "for Relative activity PE: oral 10 mg/Kg, PE (1.9 × 10^-5 M), mean ± standard error, saline = 100", "procedure": "(§2) Table 3 indicates the MAO activities in the mouse brain following oral administration of the aliphatic propargylamines.\n(§3) of each compound. Striata were dissected from the brain two hours after\n(§4) the administration of the drugs. MAOA and MAOB activities were determined\nStriata were dissected from the brain two\nhours after oral administration of the drugs. MAOB activities were then\ndetermined immediately. The values were estimated from doseresponse"}, "MAO-A [4]": {"biological_target": "T4, MAO-A (Mus musculus, UniProt Q64133)", "T4 construct": "MAO activities in the mouse brain after; from tissue", "T4 sequence (Q64133 1-526)": "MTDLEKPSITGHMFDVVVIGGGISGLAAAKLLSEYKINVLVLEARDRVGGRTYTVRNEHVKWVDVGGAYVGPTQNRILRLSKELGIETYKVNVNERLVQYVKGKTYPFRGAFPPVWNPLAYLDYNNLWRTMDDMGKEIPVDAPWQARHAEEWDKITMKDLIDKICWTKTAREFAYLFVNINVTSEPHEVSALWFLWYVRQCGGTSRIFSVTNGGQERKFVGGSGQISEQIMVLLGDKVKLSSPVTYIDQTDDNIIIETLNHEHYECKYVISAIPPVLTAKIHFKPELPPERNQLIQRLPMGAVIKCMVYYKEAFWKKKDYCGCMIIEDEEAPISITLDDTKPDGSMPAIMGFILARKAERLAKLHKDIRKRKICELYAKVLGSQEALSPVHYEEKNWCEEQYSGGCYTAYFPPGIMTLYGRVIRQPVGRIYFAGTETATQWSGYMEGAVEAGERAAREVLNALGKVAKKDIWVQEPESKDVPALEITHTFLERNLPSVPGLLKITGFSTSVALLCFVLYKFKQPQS", "format": "in vivo", "procedure": "as §2, §3, §4"}, "MAO-A [5]": {"biological_target": "T4, MAO-A", "assay": "in vivo", "conditions": "ip, read-out: 5-HT ID50", "procedure": "(§5) Albino Swiss mice were used in this study. The animals were injected intraperitoneally with different doses of the aliphatic propargylamines in 100 μL saline.\n(§6) 0.5, 1, 2, 5, 10, 20, 50, 100 mg/Kg. Striata were dissected from the brai\n(§7) two hours after i.p. administration of the drugs. MAOA and MAOB activitie\n(§8) were determined immediately. The values were estimated from doseresponse"}, "MAO-B [6]": {"biological_target": "T3, MAO-B", "assay": "in vivo", "format": "in vivo", "conditions": "for Ratio MAO-A/MAO-B: 120 min; for ED50: read-out: PE ID50", "procedure": "as §5, §6, §7, §8"}, "[7]": {"conditions": "[…], rat liver MAO, in vitro, average of at least 3 independent experiments"}},
  "note": "Like-named read-outs stand apart in the source and are kept apart here.",
  "data": [
    {"smiles": "C#CCN(C)CCCCCl.Cl", "note": "[Cl-1-BuMP, N-(4-Chloro-1-butyl)-N-methylpropargylamine-HCl]", "values": [
      {"measurement": "IC50", "setting": "MAO-B [1]; [7]", "result": 10, "unit": "µM"},
      {"measurement": "Ratio MAO-A/MAO-B", "setting": "MAO-B [1]; ratio of IC50 values, in vitro", "result": "> 10"},
      {"measurement": "IC50", "setting": "MAO-A [2]", "result": "> 100", "unit": "µM"}
    ]},
    {"smiles": "C#CCN(C)C(C)CCCCC.Cl", "note": "(centres unmarked) [Example 2-HMP, N-(2-Heptyl)-N-methylpropargylamine hydrochloride]", "values": [
      {"measurement": "IC50", "setting": "monoamine oxidase", "result": 0.3, "unit": "µM"},
      {"measurement": "Ratio MAO-A/MAO-B", "setting": "MAO-B [1]; rat, liver mitochondrial membranes", "result": 100},
      {"measurement": "IC50", "setting": "MAO-B [1]", "result": 0.2, "unit": "µM"},
      {"measurement": "IC50", "setting": "MAO-A [2]", "result": 20, "unit": "µM"},
      {"measurement": "Relative activity PE", "setting": "MAO-B [3]; 2 hours", "result": "39 ± 4", "unit": "%"},
      {"measurement": "Relative activity 5-HT", "setting": "MAO-A [4]; mouse, in vivo, po, 10 mg/kg", "result": "99 ± 5"},
      {"measurement": "ED50", "setting": "MAO-A [5]; 2 h", "result": 25, "unit": "mg/kg"},
      {"measurement": "MAO-B ID50 (mg/Kg) / IC50 (1 × 10^-6 M)", "setting": "MAO-B [6]; mouse, in vivo, ip", "result": 2.5},
      {"measurement": "Ratio MAO-A/MAO-B", "setting": "MAO-B [6]; mouse, in vivo, ip", "result": 50},
      {"measurement": "ED50", "setting": "MAO-B [6]; mouse, ip, 2 h", "result": 0.5, "unit": "mg/kg"}
    ]},
    {"smiles": "C#CCN(C)C(C)C.Cl", "note": "[Example 2-PrMP, N-Methyl-N-(2-propyl)propargylamine hydrochloride]", "values": [
      {"measurement": "IC50", "setting": "monoamine oxidase", "result": 30, "unit": "µM"},
      {"measurement": "IC50", "setting": "MAO-B [1]; [7]", "result": 20, "unit": "µM"},
      {"measurement": "5-HT IC50", "setting": "MAO-A [2]", "result": "no effect"}
    ]},
    {"smiles": "C#CCN(C)CCCCCC(=O)OCC.O=C(O)C(=O)O", "note": "[Example 5-CP1MP, N-(5-carbethoxy-1-pentyl)-N-methylpropargylamine oxalate]", "values": [
      {"measurement": "DA IC50", "setting": "monoamine oxidase", "result": "inactive"},
      {"measurement": "PE IC50", "setting": "MAO-B [1]", "result": "inactive"},
      {"measurement": "5-HT IC50", "setting": "MAO-A [2]", "result": "inactive"}
    ]},
    {"smiles": "C#CCNC(C)CC.Cl", "note": "(centres unmarked) [Example 2-BuPP, N-(2-Butyl)propargylamine hydrochloride salt]", "values": [
      {"measurement": "PE IC50", "setting": "MAO-B [1]", "result": "inactive"},
      {"measurement": "5-HT IC50", "setting": "MAO-A [2]", "result": "inactive"}
    ]},
    {"smiles": "C#CCN(CC)CCCC.O=C(O)C(=O)O", "note": "[Example 1-BuEP, N-(1-Butyl)-N-ethylpropargylamine oxalate salt]", "values": [
      {"measurement": "PE IC50", "setting": "MAO-B [1]", "result": "inactive"},
      {"measurement": "5-HT IC50", "setting": "MAO-A [2]", "result": "inactive"}
    ]},
    {"smiles": "C#CCN(C)C(C)CCCCCCCC.Cl", "note": "(centres unmarked) [Example 2-DMP, N-(2-Decyl)-N-methylpropargylamine hydrochloride]", "values": [
      {"measurement": "IC50", "setting": "monoamine oxidase", "result": 0.2, "unit": "µM"},
      {"measurement": "Ratio MAO-A/MAO-B", "setting": "MAO-B [1]; ratio of IC50 values, in vitro", "result": 50},
      {"measurement": "IC50", "setting": "MAO-B [1]", "result": 0.2, "unit": "µM"},
      {"measurement": "IC50", "setting": "MAO-A [2]", "result": 4, "unit": "µM"},
      {"measurement": "effectiveness in blocking MAO-B activity in vivo after acute oral administration (in words)", "setting": "MAO-B [3]; mouse, oral", "result": "less potent at inhibiting MAO-B activity in vivo after acute administration"},
      {"measurement": "ED50", "setting": "MAO-B [3]; mouse, oral, 2 hours, average of 5 animals per dose, estimated from dose response curves, read-out: Inhibition of MAO-B activity, dose response (ID50)", "result": 50, "unit": "mg/kg"},
      {"measurement": "Relative activity PE", "setting": "MAO-B [3]; 2 hours", "result": "104 ± 7", "unit": "%"},
      {"measurement": "Relative activity 5-HT", "setting": "MAO-A [4]; oral 10 mg/Kg, 2 hours, 5-HT (5 × 10^-4 M), mean ± standard error, saline = 100", "result": "97 ± 8", "unit": "%"},
      {"measurement": "ED50", "setting": "MAO-A [5]; 2 hours after administration, 5-HT 5 × 10^-4 M, estimated from dose response curves", "result": 35, "unit": "mg/kg"},
      {"measurement": "MAO-B ID50 (mg/Kg) / IC50 (1 × 10^-6 M)", "setting": "MAO-B [6]; ID50 i.p. in mice versus IC50 in vitro", "result": "25 (mg/Kg)/(1 × 10^-6 M)"},
      {"measurement": "ED50", "setting": "MAO-B [6]; mouse, ip, 2 hours after administration, […], estimated from dose response curves", "result": 5, "unit": "mg/kg"},
      {"measurement": "Ratio MAO-A/MAO-B", "setting": "MAO-B [6]; ratio of ID50 values, i.p.", "result": 7}
    ]},
    {"smiles": "C#CCN(C)C(C)CCCC(=O)OCC.Cl", "note": "(centres unmarked) [Example 5-CP2MP, N-(5-Carbethoxy-2-pentyl)-N-methylpropargylamine-HCl]", "values": [
      {"measurement": "DA IC50", "setting": "monoamine oxidase", "result": "inactive"},
      {"measurement": "PE IC50", "setting": "MAO-B [1]", "result": "inactive"},
      {"measurement": "5-HT IC50", "setting": "MAO-A [2]", "result": "inactive"}
    ]}
  ]
}
